For the test, the system named is P388. Kind of test: Cytotoxicity against mouse P388 cells. The conditions noted are these: read-out: ED50 (the source's name). It is filed as functional.

≈ marks a conversion by molar mass, not a printed value.

Take `CCCCCCCC/C=C/C(=O)O[C@@H]1[C@@H](C)[C@@]2(O)[C@H]([C@@H]3C(C)(C)[C@]13OC(C)=O)[C@@H](OO)C(CO)=C[C@]1(O)C(=O)C(C)=C[C@@H]21` [OSTODIN]: the EC50 was 0.055 µg/mL (≈ 0.0909 µM).

These data come from ChEMBL document CHEMBL1151410, “Plant anticancer agents. XXII. Isolation of a phorbol diester and its delta 5,6-7 beta-hydroperoxide derivative from Ostodes paniculata” (1983).
